{
  "source": "patent US20050142187A1",
  "about": "“Enhanced absorption of modified release dosage forms” (priority 2003, published 2005)",
  "origin": "cited, not measured here",
  "data": [
    {"smiles": "CC1(C)S[C@@H]2[C@H](NC(=O)[C@H](N)c3ccc(O)cc3)C(=O)N2[C@H]1C(=O)O", "note": "[Amoxicillin, amoxicillin]", "values": [
      {"measurement": "Food effect", "setting": "current scientific literature", "value": "either a negligible or a negative food effect"},
      {"measurement": "Window of absorption", "setting": "known in the art, \"or less\"", "value": "3 to 4", "unit": "h"}
    ]}
  ]
}
